# Reference: PMC8044192 (Scientific Reports, 2021)
# Experiments:
# [1] = system: dipeptidyl peptidase IV (DPP-IV); conditions: in the circulation; inactivation by DPP-IV; cited from earlier work
# Description: Defective pancreatic β-cell function is a key pathological hallmark in type 2 diabetes (T2D). Because progressive loss of β-cell insulin secretory capacity is associated with worsening hyperglycemia, targeting intrinsic β-cell activity is considered essential in T2D management. A canonical role of the gut-derived incretin hormone glucagon-like peptide-1 (GLP-1) is potentiation of glucose-stimulated insulin secretion by activation of GLP-1 receptors in islet β-cells. The incretin effect is estimated to account for approximately 50–70% of total insulin secreted following oral glucose administrat ...
# [2] = biological target: T1, DPP-IV (Homo sapiens, UniProt P27487); assay: Degradation of synthetic NPY1–36 and PYY1–36 in human plasma (control samples); type: in vitro ADME; conditions: 30 pmol peptide in 85 µl PBS + 5 µl human EDTA-plasma, 37 °C, no linagliptin, MALDI-TOF-MS
# T1 construct: Human plasma was used as source of endogenous DPP-IV; from tissue; host or cells: human EDTA-plasma from healthy adult donors
# Method: Human plasma was used as source of endogenous DPP-IV. Healthy adult individuals were enrolled after they provided written informed consent. […] Blood samples were collected from the cubital vein into blood collection tubes (EDTA-plasma). […] Plasma aliquots were transferred into 2 ml vials and stored − 80 °C. […] Parent NPY, PYY and corresponding fragments were determined by matrix-assisted laser desorption/ionization time-of-flight mass spectrometry (MALDI-TOF–MS) as described previously[34].
# [3] = Study 2: body weight and food intake in DIO mice, 14 days of treatment then 6 days of wash-out; type: in vivo, C57BL/6J mice; conditions: linagliptin 3 mg/kg or Y2R agonist 3 or 30 nmol/kg s.c. once daily for 14 days
# Method: (§1) The Danish Animal Experiments Inspectorate approved all experiments which were conducted using internationally accepted principles for the use of laboratory animals (license #2013-15-2934-00784). The study was carried out in compliance with the ARRIVE guidelines. 99 C57BL/6J mice were from Janvier Labs (Le Genest Saint Isle, France) and housed in a controlled environment (12 h light/dark cycle, lights on at 3 AM, 21 ± 2 °C, humidity 50 ± 10%). Each animal was identified by an implantable subcutaneous microchip (PetID Microchip, E-vet, Haderslev, Denmark). Mice arrived at 5 weeks of age and were made diet-induced obese (DIO) by offering ad libitum access to tap water and high-fat diet (5.15 kcal/g; 60 kcal-% fat, 20 kcal-% carbohydrate, 20% kcal-% protein; D12492, Ssniff, Soest, Germany) for 26–27 weeks before study start. The mice were kept on the diet throughout the study.
# (§2) DIO mice were randomized into individual treatment groups (n = 9–10 per group) based on body weight measured 3 days prior to initiation of drug treatment. Vehicle was phosphate-buffered saline added 5% mannitol. […] All drugs were administered once daily at 1 h before lights off. The first dose was given on day 0. Body weight and food intake was monitored daily during the treatment period.
# [4] = Plasma analytes in DIO mice (active GLP-1, GIP, insulin, metabolic markers); type: in vivo, C57BL/6J mice; conditions: study 1, linagliptin 3 mg/kg/day s.c., 4 h post-dosing
# Method: Terminal cardiac blood samples were collected in EDTA-coated tubes with (for GLP-1 and GIP analysis) or without (for DPP-IV enzyme analysis) 10 µl DPP-IV inhibitor/ml blood (Millipore, Copenhagen, Denmark) prior to sampling. Plasma was separated by centrifugation (3000 × g for 10 min at 4 °C) and immediately frozen on dry ice and stored at − 80 °C until further analysis. DPP-IV enzyme catalytic activity was determined as reported previously. Active GLP-1 and GIP levels were assessed by ELISA (#K150JWC, MesoScale Discovery, Rockville, MD; #27702, IBL, Fujioka, Japan) according to the manufacturer’s instructions. Plasma levels of insulin were measured by ELISA (#K152BZC, MesoScale Discovery, Rockville, MD), according to the manufacturer’s instructions.
# [5] = Linagliptin exposure in plasma by LC-MS/MS; type: in vivo, C57BL/6J mice; conditions: DIO mice, 3 mg/kg/day s.c. once daily, day 14, before (approx. 24 h after previous dose) and 4 h after last dose
# [6] = Oral glucose tolerance test in DIO mice; type: in vivo, C57BL/6J mice; conditions: study 2; treatment day 12; 4 h fast; 2 g/kg oral glucose; blood glucose 0–240 min; compared to vehicle dosing
# Method: In study 2, an oral glucose tolerance test (OGTT) was performed one week prior to treatment start (day -7) and on treatment day 12. Animals were fasted for 4 h prior to OGTT. At t = 0 an oral glucose load (2 g/kg glucose; 200 mg/mL, Fresenius Kabi, Sweden) was administered via a gastrically placed tube. Blood samples for measuring blood glucose were collected from the tail vein at t = 0, 15, 30, 60, 120, 180, 240 min. A pre-OGTT blood sample was collected at − 60 min (OGTT on day − 7) and − 240 min (OGTT on treatment day 12). Glucose area under the curve (AUC) calculations were determined as total AUC from the sampling period of 0 to 240 min.
# [7] = Study 1: body weight and food intake in DIO mice, linagliptin monotreatment for 14 days; type: in vivo, C57BL/6J mice; conditions: linagliptin 3 mg/kg/day s.c.
# Method: as §1, §2
# T1 sequence (P27487 39-766 limits assumed): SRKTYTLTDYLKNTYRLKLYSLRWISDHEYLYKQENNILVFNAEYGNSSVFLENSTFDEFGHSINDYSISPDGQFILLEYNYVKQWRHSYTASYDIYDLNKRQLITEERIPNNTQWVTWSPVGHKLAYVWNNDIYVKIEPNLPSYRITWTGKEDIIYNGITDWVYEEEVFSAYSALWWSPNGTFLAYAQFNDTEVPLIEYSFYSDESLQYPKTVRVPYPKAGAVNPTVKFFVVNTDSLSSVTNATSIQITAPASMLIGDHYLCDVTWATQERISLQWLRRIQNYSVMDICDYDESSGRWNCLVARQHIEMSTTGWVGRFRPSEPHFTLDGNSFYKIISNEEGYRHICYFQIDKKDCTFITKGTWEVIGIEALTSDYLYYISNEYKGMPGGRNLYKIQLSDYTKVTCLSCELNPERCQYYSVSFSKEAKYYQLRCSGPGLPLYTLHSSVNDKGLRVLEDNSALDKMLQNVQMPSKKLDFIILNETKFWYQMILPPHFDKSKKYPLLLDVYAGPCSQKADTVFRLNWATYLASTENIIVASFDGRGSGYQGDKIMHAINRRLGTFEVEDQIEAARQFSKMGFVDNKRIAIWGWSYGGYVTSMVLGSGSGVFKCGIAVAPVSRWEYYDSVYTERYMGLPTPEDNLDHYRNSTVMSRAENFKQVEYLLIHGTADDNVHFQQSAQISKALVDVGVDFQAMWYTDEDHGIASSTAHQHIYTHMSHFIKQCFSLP
molecule,measurement,setting,value
glucagon-like peptide-1 [GLP-1_7–36],circulatory half-life,[1],approximately 1 min
PYY: synthetic human full-length PYY1–36 used as DPP-IV substrate [peptide YY],fraction of PYY processed,[2]; 18 h,30%-50%
CC#CCn1c(N2CCC[C@@H](N)C2)nc2c1c(=O)n(Cc1nc(C)c3ccccc3n1)c(=O)n2C [linagliptin],food intake,[3],did not influence food intake
same,terminal plasma insulin levels,[4]; day 14,unaffected
same,plasma TNF-α concentration,"[4]; terminal, 14 days",significantly reduced
same,plasma pancreatic polypeptide,"[4]; terminal, 14 days",unaffected
same,plasma resistin concentration,"[4]; terminal, 14 days",significantly reduced
same,plasma total PYY,"[4]; terminal, 14 days",unaffected
same,plasma linagliptin exposure,[5],~ 200 nM
same,oral glucose tolerance,[6],significantly improved glucose tolerance
same,food intake,[7]; 14 days,essentially unaffected
same,weight loss compared to vehicle controls,"[7]; 14 days of treatment, p < 0.05",2.8%
neuropeptide Y [NPY],fraction of NPY processed by DPP-IV,[2]; 8 h,approximately two-thirds
